From publication PMC11743672, “Characterization of the ligand-binding properties of odorant-binding protein 38 from Riptortus pedestris when interacting with soybean volatiles” (Frontiers in Physiology, 2025)
Like-named read-outs stand apart in the source and are kept apart here.

Target: RpedOBP38 (Riptortus pedestris, UniProt A0A2Z4HQ26)
Assay: Fluorescence competitive binding assay (1-NPN displacement)
Conditions: for IC50: 2 μM recombinant RpedOBP38 and 1-NPN, PBS pH 7.4, three replicates
Excerpt: Recombinant RpedOBP38 binding to putative chemical ligands was characterized with a microplate reader (BioTek Synergy H1, United States). Fluorescence intensity values at the excitation wavelength of 337 nm and a maximum fluorescence emission wavelength of 450 nm were plotted against the free concentration of ligand for the measurement of dissociation constants, selecting candidate ligands from among 36 volatile compounds that included 11 green leaf volatiles ([Chen et al., 2018]; [Guo and Wang, 2019]; [Cheng et al., 2020]; [Hong et al., 2022]; [Tang et al., 2023]; [Zhu et al., 2023]), 11 soybean volatiles ([Wang et al., 2019a]; [Zhu et al., 2022]), 10 repellent activity volatiles ([Zhang et al., 2013]; [Zhang et al., 2014]), and 4 aggregation pheromone compounds ([Leal et al., 1995]; [Yasuda et al., 2007]). HPLC-grade methanol was used for the dissolution of the probe N-phenyl-1-naphthylamine (1-NPN) and all ligands. The ability of RpedOBP38 to bind 1-NPN was assessed by using 10 mM PBS (pH 7.4) to prepare a 2 μM purified protein solution, titrating with 1 mM 1-NPN in methanol to prepare final concentrations from 2–20 μM. RpedOBP38 binding to each ligand was evaluated in a solution consisting of 2 μM purified protein and 1-NPN, followed by titration through the addition of ligands until no further decrease in the fluorescence intensity was observed. Ligands were independently replicated three times, and dissociation constants for each ligand were measured as follows: Ki = [IC50]/(1 + [1-NPN]/K1-NPN), where IC50 denotes the ligand concentration when the fluorescence intensity is half of the initial value [1-NPN] is the free 1-NPN concentration, and K1-NPN is the dissociation constant for the RpedOBP38/1-NPN complex ([Campanacci et al., 2001]).

[1] = Ki = [IC50]/(1 + [1-NPN]/K1-NPN), 2 μM protein and 1-NPN, Ki > 40 considered weak binding
[2] = values as quoted in running text

RpedOBP38, sequence (A0A2Z4HQ26 entry or part of it): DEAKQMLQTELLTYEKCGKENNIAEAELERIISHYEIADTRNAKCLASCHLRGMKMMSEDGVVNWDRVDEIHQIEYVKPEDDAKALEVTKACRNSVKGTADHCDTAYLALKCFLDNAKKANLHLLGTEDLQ

Row | SMILES | IC50 [µM] | Ki [1] [µM] | Ki [µM] | Ki [2] [µM]
1 | CCCCCCCCCCCCCCOC(=O)C(C)C [myristyl isobutyrate] | > 40 | > 40 | – | –
2 | C=C(C)C1CC=C(C)C(=O)C1 (single isomer, unassigned; (-)) [(−)-carvone] | 36.2 ± 5.17 | – | 27.2 ± 3.88 | 27.2
3 | CC1=CCC2CC1C2(C)C (stereo not drawn) [(−)-α-pinene] | > 40 | > 40 | – | –
4 | C=C(C)[C@H]1CC=C(C)C(=O)C1 [(+)-carvone] | > 40 | > 40 | – | –
5 | CC1=CC[C@](O)(C(C)C)CC1 [(+) -4-terpineol] | 18.7 ± 0.428 | – | 14 ± 0.321 | 14
6 | CC1=CC[C@@](O)(C(C)C)CC1 [(−) -4-terpineol] | > 40 | > 40 | – | –
